Data taken from patent publication US20240316132A1 (priority 2023, published 2024).
≈ marks a conversion by molar mass, not a printed value.

Legend:
Solubility in water = type: physicochemical
[1] = Solubility in DMDA / Met10u high-KB amide surfactant; type: physicochemical
[2] = Solubility in mineral oil; type: physicochemical; conditions: oil or lipid, under certain conditions
[3] = Thermal stability (decarboxylation of CBDA to CBD); type: physicochemical; conditions: saturated solution of CBDA in Met10u
[4] = cited from earlier work

## C=C(C)[C@@H]1CCC(C)=C[C@H]1c1c(O)cc(CCCCC)c(C(=O)O)c1O [CBDA, Δ(9)-tetrahydrocannabidiolic acid]
Solubility in water; temperature of 4 degrees Celsius or lower, pH 4 or lower
  solubility of CBDA in water: below 20 micrograms per milliliter
Solubility in water; temperature of 70 degrees Celsius or higher, pH of 10 or higher
  solubility of CBDA in water: over 20 milligrams per milliliter
[1]; DMDA (high-KB amide surfactant), organic solvent or mixture, at 70 C
  solubility: > 1000 mg/mL
[1]; at 0 C
  solubility of CBDA in Met10u: 1%
[1]; at 60 C
  solubility of CBDA in Met10u: 100%
[2]
  solubility: ~6 mg/mL (≈ 16.7 mM)
[3]
  temperature at which CBDA begins to lose its carboxylic moiety (decarboxylation) and become CBD: at least 130 C

## CCCCC/C=C\C/C=C\CCCCCCCC(=O)O [Linoleic acid, linoleic acid]
[4]
  pKa: 9.24
